Results: ChEMBL document CHEMBL1130885, “A potent and selective inhibition of parainfluenza 1 (Sendai) virus by new 6-oxiranyl-, 6-methyloxiranyluracils, and 4(3H)-pyrimidinone derivatives” (1998)

Columns and labels:
MDCK [1] = experiment: Antiviral activity against parainfluenza 1 (sendai) virus was determined in madin Darby canine kidney (MDCK)i cells; format: functional, Canis lupus familiaris; conditions: read-out: ED50 (the source's name)
MDCK [2] = experiment: Minimum toxic concentration required to cause microscopically detectable alteration of confluent madin Darby canine kidney (MDCK)cell morphology; format: functional, Canis lupus familiaris
Mus musculus = species on record: Mus musculus; experiment: Inhibitory concentration required to inhibit proliferation in mouse myeloma cells; format: functional

Structure (SMILES): C[C@H]1O[C@@]1(C)Cc1cc(=O)n(C)c(=O)n1C
- EC50 (MDCK [1]; Canis lupus familiaris, MDCK): > 2 µM
- MTC (MDCK [2]): >2 µM
- CC50 (Mus musculus; Mus musculus): 89 µM

Structure (SMILES): C[C@@H]1O[C@@]1(C)Cc1cc(=O)n(C)c(=O)n1C
- EC50 (MDCK [1]; Canis lupus familiaris, MDCK): > 2 µM
- MTC (MDCK [2]): >2 µM
- CC50 (Mus musculus; Mus musculus): 89 µM

Structure (SMILES): Cn1c(CC2(C)CO2)cc(=O)n(C)c1=O (configuration not stated)
- EC50 (MDCK [1]; Canis lupus familiaris, MDCK): 0.24 µM
- MTC (MDCK [2]): 0.48 µM
- CC50 (Mus musculus; Mus musculus): 4 µM

Structure (SMILES): Cn1c(CC2(C(C)(C)C)CO2)cc(=O)n(C)c1=O (configuration not stated)
- EC50 (MDCK [1]; Canis lupus familiaris, MDCK): 0.59 µM
- MTC (MDCK [2]): >0.79 µM
- CC50 (Mus musculus; Mus musculus): 7.9 µM

Structure (SMILES): Cn1c(CC2(c3ccccc3)CO2)cc(=O)n(C)c1=O (configuration not stated)
- EC50 (MDCK [1]; Canis lupus familiaris, MDCK): 0.18 µM
- MTC (MDCK [2]): 0.37 µM
- CC50 (Mus musculus; Mus musculus): 3.7 µM

Structure (SMILES): CCCOc1nc(CC23CCCCC2O3)cc(=O)n1C (configuration not stated)
- EC50 (MDCK [1]; Canis lupus familiaris, MDCK): 176 µM
- MTC (MDCK [2]): >352 µM
- CC50 (Mus musculus; Mus musculus): > 352 µM

Structure (SMILES): Cn1c(C2OC2(C)c2ccccc2)cc(=O)n(C)c1=O (configuration not stated)
- EC50 (MDCK [1]; Canis lupus familiaris, MDCK): 0.47 µM
- MTC (MDCK [2]): >0.81 µM
- CC50 (Mus musculus; Mus musculus): 7.3 µM

Structure (SMILES): CCCOc1nc(CC2(c3ccccc3)CO2)cc(=O)n1C (configuration not stated)
- EC50 (MDCK [1]; Canis lupus familiaris, MDCK): 16.6 µM
- MTC (MDCK [2]): 330 µM
- CC50 (Mus musculus; Mus musculus): > 30 µM

Structure (SMILES): Cn1c(CC23CCCC2O3)cc(=O)n(C)c1=O (configuration not stated)
- EC50 (MDCK [1]; Canis lupus familiaris, MDCK): 0.42 µM
- MTC (MDCK [2]): >0.84 µM
- CC50 (Mus musculus; Mus musculus): 8.4 µM

Structure (SMILES): Cn1c(OC2CCCCC2)nc(CC2(c3ccccc3)CO2)cc1=O (configuration not stated)
- EC50 (MDCK [1]; Canis lupus familiaris, MDCK): 147 µM
- MTC (MDCK [2]): 294 µM
- CC50 (Mus musculus; Mus musculus): > 294 µM

Structure (SMILES): Cn1c(CC23CCCCC2O3)cc(=O)n(C)c1=O (configuration not stated)
- EC50 (MDCK [1]; Canis lupus familiaris, MDCK): > 2 µM
- MTC (MDCK [2]): >2 µM
- CC50 (Mus musculus; Mus musculus): 40 µM

Structure (SMILES): CC1OC1(C)Cc1cc(=O)n(C)c(OC2CCCCC2)n1 (configuration not stated)
- EC50 (MDCK [1]; Canis lupus familiaris, MDCK): 171 µM
- MTC (MDCK [2]): 342 µM
- CC50 (Mus musculus; Mus musculus): > 342 µM

Structure (SMILES): Cn1c(C2OC2c2ccccc2)cc(=O)n(C)c1=O (stereo in doubt; 6b)
- EC50 (MDCK [1]): 0.38 µM
- MTC (MDCK [2]): >0.8 µM
- CC50 (Mus musculus): 7.7 µM

Structure (SMILES): Cn1c(C2OC2c2ccccc2)cc(=O)n(C)c1=O (stereo in doubt; 6c)
- EC50 (MDCK [1]): 193 µM
- MTC (MDCK [2]): 380 µM
- CC50 (Mus musculus): > 380 µM
